Each block holds one compound with its values, some of them ahead of it.
Assays:
[1] = target: T1, Estrogen receptor (Homo sapiens, UniProt P03372); test: Inhibition of ER (unknown origin) by luciferase reporter assay
T1 sequence (P03372 whole entry): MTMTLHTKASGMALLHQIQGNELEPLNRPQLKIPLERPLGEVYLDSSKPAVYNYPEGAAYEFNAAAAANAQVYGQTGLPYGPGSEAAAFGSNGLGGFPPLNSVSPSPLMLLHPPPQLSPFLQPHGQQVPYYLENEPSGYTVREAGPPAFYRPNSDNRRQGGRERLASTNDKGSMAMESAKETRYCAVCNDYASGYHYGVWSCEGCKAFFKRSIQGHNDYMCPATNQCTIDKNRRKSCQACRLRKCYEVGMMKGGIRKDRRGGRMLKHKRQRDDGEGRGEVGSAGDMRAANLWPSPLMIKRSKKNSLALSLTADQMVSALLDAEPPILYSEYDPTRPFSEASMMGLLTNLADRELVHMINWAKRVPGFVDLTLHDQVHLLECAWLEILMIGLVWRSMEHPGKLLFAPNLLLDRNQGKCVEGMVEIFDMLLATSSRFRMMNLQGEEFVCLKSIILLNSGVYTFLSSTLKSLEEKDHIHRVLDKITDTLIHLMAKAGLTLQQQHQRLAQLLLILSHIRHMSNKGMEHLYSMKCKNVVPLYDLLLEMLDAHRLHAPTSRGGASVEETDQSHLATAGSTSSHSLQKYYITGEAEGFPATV

[2] = Downregulation of ER in human MCF7 cells assessed as […] measured after 2 days EIA assay; type: functional, cell-based; conditions: MCF7, 48 h
[3] = tested on: MCF7; test: Antiproliferative activity against human MCF7 cells; type: functional, cell-based
[4] = tested on: MCF7; test: Antiproliferative activity against human MCF7 cells assessed as reduction in cell proliferation; type: functional, cell-based
[5] = tested on: Rattus norvegicus; test: Anti-uterotrophic activity in rat at 10 mg/kg, sc administered once daily for 3 days relative to control; type: functional; conditions: time 3 day
[6] = Inhibition of ESR1 Y537S mutant LBD (unknown origin) transfected in SK-BR-3 cells measured after 22 hrs by luciferase assay; type: cell-based; conditions: Homo sapiens, SK-BR-3, 22 h

SMILES: C[C@]12CCC3c4ccc(O)cc4C[C@@H](CCCCCCCC[C@H](CCCC(F)(F)C(F)(F)C(F)(F)C(F)(F)F)C(=O)O)C3C1CCC2=O (some centres not stated)
IC50 [1]: 49.8 nM
IC50 [2]: 24 nM

SMILES: CN(CCCCC[C@@H]1Cc2cc(O)ccc2C2C1C1CC[C@H](O)[C@@]1(C)C[C@@H]2F)CCCSCCCC(F)(F)C(F)(F)F (some centres not stated)
IC50 [3]: 2.4 nM

IC50 [4]: 4.2 nM
SMILES: CCNCCc1ccc(CN(CC)c2cc(OC)ccc2[C@@H]2CCc3cc(O)ccc3C2)cc1 [ELACESTRANT]

SMILES: CCCCN(C)C(=O)CCCCCCCCCC[C@@H]1Cc2cc(O)ccc2C2CC[C@@]3(C)C(CC[C@@H]3O)C21 (some centres not stated)
Activity [5]: 105%

SMILES: CCCCNC(=O)CCCCCCCCCC[C@@H]1Cc2cc(O)ccc2C2CC[C@@]3(C)C(CC[C@@H]3O)C21 (some centres not stated)
Activity [5]: 100%

IC50 [6]: 8 nM
IC50 [3]: 9.2 nM
SMILES: CC1=C(c2ccc(O)cc2)[C@H](c2ccc(OCCN3CC[C@@H](C)C3)cc2)Oc2cc(O)ccc21

SMILES: C[C@]12C[C@H](c3ccc(OCCCCCS(=O)(=O)CCCC(F)(F)C(F)(F)F)cc3)C3c4ccc(O)cc4CCC3C1CC[C@@H]2O (some centres not stated)
IC50 [3]: 0.13 nM

SMILES: C[C@]12CC[C@@H]3c4ccc(O)cc4C[C@@H](CCCCCCCCC[S+]([O-])CCCC(F)(F)C(F)(F)F)[C@H]3[C@@H]1CC[C@@H]2O (some centres not stated) [FULVESTRANT]
IC50 [6]: 22 nM
IC50 [3]: 0.35 nM

SMILES: CN(CCCCCCC(F)(F)C(F)(F)C(F)(F)C(F)(F)F)CCCCC[C@@H]1Cc2cc(O)ccc2C2C1C1CC[C@H](O)[C@@]1(C)C[C@@H]2F (some centres not stated)
IC50 [3]: 1.9 nM
